Tests used:
[1] = test system: MCF-7 (hormone receptor/HR-positive breast cancer cells); assay: MTT cell viability assay in MCF-7 cells; assay type: cell-based; settings: Homo sapiens, MCF7, 72 h, concentrations 10 µM, 25 µM and 50 μM in Fig. 10, read-out: IC50 against MCF-7 breast cancer cells line
[2] = test system: MDA-MB-231 (human breast cancer) cell line; assay: MTT cell viability assay in MDA-MB-231 cells; assay type: cell-based; settings: for inhibition at 25 µM: MDA-MB-231, 25 μM concentration; for IC50: MDA-MB-231, MTT, concentrations 10, 25 and 50 µM, n = 3, read-out: IC50 against MDA-MB-231 breast cancer cell line; for IC50 / viability at 10 µM / viability at 25 µM / viability at 50 µM: 72 h; for viability at 10 µM / viability at 25 µM / viability at 50 µM: Table 2, MDA-MB-231, MTT, read-out: Cell viability (%) ± SD
Experimental: Thus, we screened the synthesized library of pyrazolo[1,5-a]pyrimidin-7-ols 4a–4i. Anticancer activity (in terms of growth inhibition/decreased cell viability with respect to control) of all synthesized compounds (n = 9) was investigated by MTT assay in MDA-MB-231 (human breast cancer) cell line at different concentrations for 72 h. […] Thus, it was aimed to investigate the anticancer activity of a synthesized library of triazole-linked glycohybrids of pyrazolo[1,5-a]pyrimidines. […] The MTT assay was used to investigate the anticancer activity of twenty-seven synthesized compounds on the growth inhibition and decrement in cell viability of MDA-MB-231 (human breast cancer). Different concentrations were tested for 72 h, and the results were compared to a control. MDA-MB-231, a human breast cancer cell line, was cultured under standard conditions. Specifically, they were grown in Dulbecco’s Modified Eagle’s Medium (DMEM) supplemented with 10% heat-inactivated Fetal Bovine Serum (FBS) and 1% penicillin–streptomycin. The cells were maintained as a monolayer in a 100 mm culture plate and were used for experiments before reaching their 8th passage. Subculturing was performed every third-day using trypsin EDTA treatment. All incubation and maintenance procedures were carried out in a humidified CO2 incubator at 37 °C. To evaluate cell viability, the MTT assay was conducted following standard procedures. After 72 h of cell incubation with or without each compound, cell viability was assessed using MTT (3-(4,5-dimethylthiazol-2-yl)-2,5-diphenyltetrazolium bromide), which is a colorimetric method for determining the number of viable cells in various assays including proliferation, cytotoxicity, or chemosensitivity. The MTT reagent was added to the cells after removal of the medium and incubated for 3 h at 37 °C in the CO2 incubator. The formazan product, which is […] in the tissue culture medium, was dissolved in DMSO, and the absorbance of the formazan product was directly measured at 595 nm using a multimode plate reader without additional processing. The absorbance values are directly proportional to the number of viable cells in culture. The percentage of viable cells in each group was determined relative to the untreated control cells.

| SMILES | IC50 [1] [µM] | inhibition at 25 µM [2] [%] | IC50 [2] [µM] | viability at 10 µM [2] [%] | viability at 25 µM [2] [%] | viability at 50 µM [2] [%] |
| --- | --- | --- | --- | --- | --- | --- |
| CC(=O)OC[C@H]1O[C@@H](n2cc(COc3cc(-c4ccc(C(F)(F)F)cc4)nc4ccnn34)nn2)[C@H](OC(C)=O)[C@@H](OC(C)=O)[C@H]1OC(C)=O [Compound 10f, (2R,3S,4S,5R,6R)-2-(acetoxymethyl)-6-(4-(((5-(4-(trifluoromethyl)phenyl)pyrazolo[1,5-a]pyrimidin-7-yl)oxy)methyl)-1H-1,2,3-triazol-1-yl)tetrahydro-2H-pyran-3,4,5-triyl triacetate] | 42.1 | ~50 | 31.2 | 69.4 ± 5.36 | 45.1 ± 3.32 | 41.2 ± 1.26 |
| CC(=O)OC[C@H]1O[C@@H](n2cc(COc3cc(-c4ccc5ccccc5c4)nc4ccnn34)nn2)[C@H](OC(C)=O)[C@@H](OC(C)=O)[C@@H]1OC(C)=O [Compound 9h, (2R,3R,4S,5R,6R)-2-(acetoxymethyl)-6-(4-(((5-(naphthalen-2-yl)pyrazolo[1,5-a]pyrimidin-7-yl)oxy)methyl)-1H-1,2,3-triazol-1-yl)tetrahydro-2H-pyran-3,4,5-triyl triacetate] | 21.1 | ~50 | 35.9 | 96.6 ± 3.36 | 55.2 ± 7.06 | 42.8 ± 5.04 |
| CC(=O)OC[C@H]1O[C@@H](n2cc(COc3cc(-c4ccc(C)cc4)nc4ccnn34)nn2)[C@H](OC(C)=O)[C@@H](OC(C)=O)[C@@H]1OC(C)=O [Compound 9a, (2R,3R,4S,5R,6R)-2-(acetoxymethyl)-6-(4-(((5-(p-tolyl)pyrazolo[1,5-a]pyrimidin-7-yl)oxy)methyl)-1H-1,2,3-triazol-1-yl)tetrahydro-2H-pyran-3,4,5-triyl triacetate] | 35.4 | ~50 | 29.6 | 70.1 ± 9.53 | 51 ± 9.19 | 35.3 ± 4.29 |
| CC(=O)OC[C@H]1O[C@@H](n2cc(COc3cc(-c4ccc(Cl)cc4)nc4ccnn34)nn2)[C@H](OC(C)=O)[C@@H](OC(C)=O)[C@H]1OC(C)=O [Compound 10d, (2R,3S,4S,5R,6R)-2-(acetoxymethyl)-6-(4-(((5-(4-chlorophenyl)pyrazolo[1,5-a]pyrimidin-7-yl)oxy)methyl)-1H-1,2,3-triazol-1-yl)tetrahydro-2H-pyran-3,4,5-triyl triacetate] | 40.1 | ~50 | 29.1 | 56.7 ± 8.23 | 53.3 ± 6.32 | 41 ± 4.91 |
| CC(=O)OC[C@H]1O[C@H](n2cc(COc3cc(-c4ccc(C(C)C)cc4)nc4ccnn34)nn2)[C@@H](OC(C)=O)[C@@H](OC(C)=O)[C@@H]1OC(C)=O [Compound 11g, (2R,3R,4S,5S,6S)-2-(acetoxymethyl)-6-(4-(((5-(4-isopropylphenyl)pyrazolo[1,5-a]pyrimidin-7-yl)oxy)methyl)-1H-1,2,3-triazol-1-yl)tetrahydro-2H-pyran-3,4,5-triyl triacetate] | 18.3 | ~50 | 38.8 | 66.7 ± 8.21 | 54.3 ± 6.12 | 45.3 ± 4.11 |
| CC(=O)OC[C@H]1O[C@@H](n2cc(COc3cc(-c4ccc(Cl)cc4)nc4ccnn34)nn2)[C@H](OC(C)=O)[C@@H](OC(C)=O)[C@@H]1OC(C)=O [Compound 9d, (2R,3R,4S,5R,6R)-2-(acetoxymethyl)-6-(4-(((5-(4-chlorophenyl)pyrazolo[1,5-a]pyrimidin-7-yl)oxy)methyl)-1H-1,2,3-triazol-1-yl)tetrahydro-2H-pyran-3,4,5-triyl triacetate] | 15.3 | ~50 | 43.1 | 75.6 ± 9.76 | 61 ± 8.47 | 58.6 ± 5.61 |

— PMC10766964, “Copper-catalyzed synthesis of pyrazolo[1,5-a]pyrimidine based triazole-linked glycohybrids: mechanistic insights and bio-applications” (Scientific Reports, 2024)
